In general, EC50 refers to the midpoint of the concentration-response curve.

The target in assay [1] is T1, human amylin receptor (calcitonin receptor co-expressed with receptor activity modifying protein, RAMP3) (hAMYR3) (Homo sapiens, UniProt O60896+P30988).
T1 construct: expressed in transfected cells
T1 sequence (P30988 25-474): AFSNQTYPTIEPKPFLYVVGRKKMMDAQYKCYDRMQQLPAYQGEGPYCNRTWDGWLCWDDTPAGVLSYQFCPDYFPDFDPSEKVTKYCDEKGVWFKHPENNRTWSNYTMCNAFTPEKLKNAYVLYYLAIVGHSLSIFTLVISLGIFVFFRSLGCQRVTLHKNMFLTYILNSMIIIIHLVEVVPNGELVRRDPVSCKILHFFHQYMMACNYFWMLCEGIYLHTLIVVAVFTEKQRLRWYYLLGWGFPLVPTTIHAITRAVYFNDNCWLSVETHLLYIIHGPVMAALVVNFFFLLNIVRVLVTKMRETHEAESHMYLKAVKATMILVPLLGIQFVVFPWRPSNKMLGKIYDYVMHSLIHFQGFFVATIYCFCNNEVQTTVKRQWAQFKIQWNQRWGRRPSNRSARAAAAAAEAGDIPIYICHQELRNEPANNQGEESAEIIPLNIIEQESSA
T1 sequence (O60896 24-148 partner): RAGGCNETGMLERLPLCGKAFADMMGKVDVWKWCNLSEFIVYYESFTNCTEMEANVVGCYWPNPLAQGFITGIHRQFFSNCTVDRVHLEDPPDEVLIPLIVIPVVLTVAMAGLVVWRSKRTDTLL
Put plainly: cAMP production in 1321N1 cells with stable recombinant expression of human amylin receptor (hAMYR3). The format is cell-based. Particulars: for Ratio (selectivity hAMYR vs hCTR, ratio of EC50 values at the two receptors): EC50 hCTR / EC50 hAMYR3; for EC50: cAMP, 1321N1 cells, assay buffer with 0.1% BSA, read-out: EC50 (pM) hAMYR3. The procedure, abridged: (§1)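 EC50 values come from 4-parameter logistic fits of HTRF cAMP signal, normalised to maximal calcitonin or amylin effect. Peptides were tested in duplicate for 30 min at RT in IBMX-containing (0.5 mM) BSA/HEPES buffer pH 7.4 on stable 1321N1 (human CTR, AMYR3) or HEK (rat CTR, AMYR3) lines.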
(cAMP levels reflect the balance of adenylyl cyclase and phosphodiesterase activity.)

In assay [2] the target is T2, human calcitonin receptor (hCTR) (Homo sapiens, UniProt P30988).
T2 construct: expressed in transfected cells
T2 sequence (P30988 25-474): T1 sequence (P30988 25-474)
Put plainly: cAMP production in 1321N1 cells with stable recombinant expression of human calcitonin receptor (hCTR). It counts as cell-based. Particulars: cAMP, 1321N1 cells, assay buffer with 0.1% BSA; read-out: EC50 (pM) hCTR. The essentials: as §1

Numbered stars: 1 amine (or outer) side, 2 acyl side, 3 side chain; on linkers, the order of the positions; unused ones are H or OH. Bridge positions count the residues as written; N and C are the ends. Square brackets hold non-standard residues; d marks the D form. Side chains are listed from the residue outwards. Peptide text beside a SMILES is read from it. * marks the point of attachment. C18 diacid = O=C(O)CCCCCCCCCCCCCCCCC(=O)*; γGlu = O=C(O)[C@H](CCC(=O)[*:2])N[*:1]; Aib = CC(C)(N)C(=O)O

Regarding `CC[C@H](C)[C@H](NC(=O)[C@@H]1CCCN1C(=O)CNC(=O)[C@H](Cc1ccccc1)NC(=O)[C@H](CC(N)=O)NC(=O)C(C)(C)NC(=O)[C@H](CO)NC(=O)[C@H](CO)NC(=O)[C@H](Cc1c[nH]cn1)NC(=O)[C@@H](NC(=O)[C@H](CC(C)C)NC(=O)[C@H](Cc1ccccc1)NC(=O)[C@H](CC(N)=O)NC(=O)[C@H](C)NC(=O)[C@H](CC(C)C)NC(=O)[C@H](CCCNC(=N)N)NC(=O)[C@H](CCC(N)=O)NC(=O)[C@@H](NC(=O)[C@H](C)NC(=O)[C@@H]1CSSC[C@H](NC(=O)[C@@H](N)CCCCNC(=O)CC[C@H](NC(=O)CC[C@H](NC(=O)CCCCCCCCCCCCCCCCC(=O)O)C(=O)O)C(=O)O)C(=O)N[C@@H](CC(N)=O)C(=O)N[C@@H]([C@@H](C)O)C(=O)N[C@@H](C)C(=O)N[C@@H]([C@@H](C)O)C(=O)N1)[C@@H](C)O)C(C)C)C(=O)N[C@@H](CC(C)C)C(=O)N1CCC[C@H]1C(=O)N1CCC[C@H]1C(=O)N[C@H](C(=O)N[C@@H](CCCNC(=N)N)C(=O)N[C@H](C(=O)NCC(=O)N[C@@H](CO)C(=O)N[C@@H](CC(N)=O)C(=O)N[C@H](C(=O)N[C@@H](Cc1ccc(O)cc1)C(N)=O)[C@@H](C)O)C(C)C)[C@@H](C)O` [Peptide 67, K(γE-γE-C18diacid)[CNTATC]ATQRLANFLVHSS(Aib)NFGPILPPTRVGSNTY-amide] (H-K([γGlu-γGlu-C18 diacid])CNTATCATQRLANFLVHSS[Aib]NFGPILPPTRVGSNTY-NH2; disulfide 2-7; N-terminus assumed), in assay [1], the “Ratio (selectivity hAMYR vs hCTR, ratio of EC50 values at the two receptors)” value turned out to be 30. Further, the values for the EC50 in assay [1] and in assay [2] were 132 pM and 4010 pM, respectively.

For `CC[C@H](C)[C@H](NC(=O)[C@@H]1CCCN1C(=O)CNC(=O)[C@H](Cc1ccccc1)NC(=O)[C@H](CC(N)=O)NC(=O)C(C)(C)NC(=O)[C@H](CO)NC(=O)[C@H](CO)NC(=O)[C@H](Cc1c[nH]cn1)NC(=O)[C@@H](NC(=O)[C@H](CC(C)C)NC(=O)[C@H](Cc1ccccc1)NC(=O)[C@H](CC(N)=O)NC(=O)[C@H](C)NC(=O)[C@H](CC(C)C)NC(=O)[C@H](CCCNC(=N)N)NC(=O)[C@H](CCC(N)=O)NC(=O)[C@@H](NC(=O)[C@H](C)NC(=O)[C@@H]1CSSC[C@H](NC(=O)CC[C@H](NC(=O)CCCCCCCCCCCCCCCCC(=O)O)C(=O)O)C(=O)N[C@@H](CC(N)=O)C(=O)N[C@@H]([C@@H](C)O)C(=O)N[C@@H](C)C(=O)N[C@@H]([C@@H](C)O)C(=O)N1)[C@@H](C)O)C(C)C)C(=O)N[C@@H](CC(C)C)C(=O)N1CCC[C@H]1C(=O)N1CCC[C@H]1C(=O)N[C@H](C(=O)N[C@@H](CCCNC(=N)N)C(=O)N[C@H](C(=O)NCC(=O)N[C@@H](CO)C(=O)N[C@@H](CC(N)=O)C(=O)N[C@H](C(=O)N[C@@H](Cc1ccc(O)cc1)C(N)=O)[C@@H](C)O)C(C)C)[C@@H](C)O` [Peptide 68, (C18diacid-γE-[CNTATC]ATQRLANFLVHSS(Aib)NFGPILPPTRVGSNTY-amide] ({C18 diacid-γGlu}-CNTATCATQRLANFLVHSS[Aib]NFGPILPPTRVGSNTY-NH2; disulfide 1-6), the “Ratio (selectivity hAMYR vs hCTR, ratio of EC50 values at the two receptors)” value in assay [1] is reported as 9. In addition, the EC50 was 192 pM in assay [1] and 1770 pM in assay [2].

Take `CC[C@H](C)[C@H](NC(=O)[C@@H]1CCCN1C(=O)CNC(=O)[C@H](Cc1ccccc1)NC(=O)[C@H](CC(N)=O)NC(=O)C(C)(C)NC(=O)[C@H](CO)NC(=O)[C@H](CO)NC(=O)[C@H](Cc1c[nH]cn1)NC(=O)[C@@H](NC(=O)[C@H](CC(C)C)NC(=O)[C@H](Cc1ccccc1)NC(=O)[C@H](CC(N)=O)NC(=O)[C@H](C)NC(=O)[C@H](CC(C)C)NC(=O)[C@H](CCCNC(=N)N)NC(=O)[C@H](CCC(N)=O)NC(=O)[C@@H](NC(=O)[C@H](C)NC(=O)[C@@H]1CSSC[C@H](NC(=O)[C@@H](N)CCCCNC(=O)CC[C@H](NC(=O)CC[C@H](NC(=O)CCCCCCCCCCCCCCCCC(=O)O)C(=O)O)C(=O)O)C(=O)N[C@@H](CC(N)=O)C(=O)N[C@@H]([C@@H](C)O)C(=O)N[C@@H](C)C(=O)N[C@@H]([C@@H](C)O)C(=O)N1)[C@@H](C)O)C(C)C)C(=O)N[C@@H](CC(C)C)C(=O)N1CCC[C@H]1C(=O)N1CCC[C@H]1C(=O)N[C@H](C(=O)N[C@@H](CC(N)=O)C(=O)N[C@H](C(=O)NCC(=O)N[C@@H](CO)C(=O)N[C@@H](CCCNC(=N)N)C(=O)N[C@H](C(=O)N[C@@H](Cc1ccc(O)cc1)C(N)=O)[C@@H](C)O)C(C)C)[C@@H](C)O` [Peptide 72, K(γE-γE-C18diacid)[CNTATC]ATQRLANFLVHSS(Aib)NFGPILPPTNVGSRTY-amide] (H-K([γGlu-γGlu-C18 diacid])CNTATCATQRLANFLVHSS[Aib]NFGPILPPTNVGSRTY-NH2; disulfide 2-7; N-terminus assumed): in assay [1], the “Ratio (selectivity hAMYR vs hCTR, ratio of EC50 values at the two receptors)” value was 18 and the EC50 worked out at 227 pM. Moreover, the EC50 in assay [2] was determined as 4000 pM.

Take `CC[C@H](C)[C@H](NC(=O)[C@@H]1CCCN1C(=O)CNC(=O)[C@H](Cc1ccccc1)NC(=O)[C@H](CC(N)=O)NC(=O)C(C)(C)NC(=O)[C@H](CO)NC(=O)[C@H](CO)NC(=O)[C@H](Cc1c[nH]cn1)NC(=O)[C@@H](NC(=O)[C@H](CC(C)C)NC(=O)[C@H](Cc1ccccc1)NC(=O)[C@H](CC(N)=O)NC(=O)[C@H](C)NC(=O)[C@H](CC(C)C)NC(=O)[C@H](CCCNC(=N)N)NC(=O)[C@H](CCC(N)=O)NC(=O)[C@@H](NC(=O)[C@H](C)NC(=O)[C@@H]1CSSC[C@H](NC(=O)[C@H](CCCCN)NC(=O)[C@@H](N)CCCCNC(=O)CC[C@H](NC(=O)CCCCCCCCCCCCCCCCC(=O)O)C(=O)O)C(=O)N[C@@H](CC(N)=O)C(=O)N[C@@H]([C@@H](C)O)C(=O)N[C@@H](C)C(=O)N[C@@H]([C@@H](C)O)C(=O)N1)[C@@H](C)O)C(C)C)C(=O)N[C@@H](CC(C)C)C(=O)N1CCC[C@H]1C(=O)N1CCC[C@H]1C(=O)N[C@H](C(=O)N[C@@H](CC(N)=O)C(=O)N[C@H](C(=O)NCC(=O)N[C@@H](CO)C(=O)N[C@@H](CCCNC(=N)N)C(=O)N[C@H](C(=O)N[C@@H](Cc1ccc(O)cc1)C(N)=O)[C@@H](C)O)C(C)C)[C@@H](C)O` [Peptide 73, K(γE-C18diacid)K[CNTATC]ATQRLANFLVHSS(Aib)NFGPILPPTNVGSRTY-amide] (H-K([γGlu-C18 diacid])KCNTATCATQRLANFLVHSS[Aib]NFGPILPPTNVGSRTY-NH2; disulfide 3-8; N-terminus assumed): in assay [1], the “Ratio (selectivity hAMYR vs hCTR, ratio of EC50 values at the two receptors)” value turned out to be 7. Also, the EC50 in assay [1] worked out at 256 pM; in assay [2] it was 1820 pM.

Take `CC[C@H](C)[C@H](NC(=O)[C@@H]1CCCN1C(=O)CNC(=O)[C@H](Cc1ccccc1)NC(=O)[C@H](CC(N)=O)NC(=O)C(C)(C)NC(=O)[C@H](CO)NC(=O)[C@H](CO)NC(=O)[C@H](Cc1c[nH]cn1)NC(=O)[C@@H](NC(=O)[C@H](CC(C)C)NC(=O)[C@H](Cc1ccccc1)NC(=O)[C@H](CC(N)=O)NC(=O)[C@H](C)NC(=O)[C@H](CC(C)C)NC(=O)[C@H](CCCNC(=N)N)NC(=O)[C@H](CCC(N)=O)NC(=O)[C@@H](NC(=O)[C@H](C)NC(=O)[C@@H]1CSSC[C@H](NC(=O)[C@H](CCCCN)NC(=O)[C@@H](N)CCCCNC(=O)CC[C@H](NC(=O)CC[C@H](NC(=O)CCCCCCCCCCCCCCCCC(=O)O)C(=O)O)C(=O)O)C(=O)N[C@@H](CC(N)=O)C(=O)N[C@@H]([C@@H](C)O)C(=O)N[C@@H](C)C(=O)N[C@@H]([C@@H](C)O)C(=O)N1)[C@@H](C)O)C(C)C)C(=O)N[C@@H](CC(C)C)C(=O)N1CCC[C@H]1C(=O)N1CCC[C@H]1C(=O)N[C@H](C(=O)N[C@@H](CC(N)=O)C(=O)N[C@H](C(=O)NCC(=O)N[C@@H](CO)C(=O)N[C@@H](CCCNC(=N)N)C(=O)N[C@H](C(=O)N[C@@H](Cc1ccc(O)cc1)C(N)=O)[C@@H](C)O)C(C)C)[C@@H](C)O` [Peptide 74, K(γE-γE-C18diacid)K[CNTATC]ATQRLANFLVHSS(Aib)NFGPILPPTNVGSRTY-amide] (H-K([γGlu-γGlu-C18 diacid])KCNTATCATQRLANFLVHSS[Aib]NFGPILPPTNVGSRTY-NH2; disulfide 3-8; N-terminus assumed): in assay [1], the “Ratio (selectivity hAMYR vs hCTR, ratio of EC50 values at the two receptors)” value is 13 and the EC50 was 356 pM. For the same compound, the EC50 in assay [2] came to 4570 pM.

Source of the values: patent US20240067693A1, “POLYPEPTIDES AND USES THEREOF” (MEDIMMUNE LIMITED, priority 2020, published 2024).
